How the values were obtained:
[1] = molecular target: T1, CRAF (Homo sapiens, UniProt P04049); assay: CRAF kinase activity assay (ADP-Glo); format: biochemical; conditions: Table 3; 10 μM ATP, kinase-dead MEK1 substrate
T1 construct: fused on or other part: GST tag (N-terminal according to the vendor's product)
Description: (§1) Compound preparation: solid samples of each substance in 1dram vials were suspended in DMSO (Fisher Scientific) at a stock concentration of 20 mM. Stocks were kept at −20° C. and protected from light. If solubility of the compound at 20 mM appeared to be an issue, the initial concentration of the DMSO stock was changed to 10 mM or 5 mM.
(§2) In vitro enzymatic reactions were used for evaluating compounds intrinsic activity against BRAF, CRAF and ARAF. For BRAF and CRAF, 0.375 nM of purified GST-tagged kinases (cat. No. B4062-10UG and cat. No. R1656-10UG respectively from Millipore Sigma) were incubated with 75 nM of kinase-dead MEK1 substrate (cat. No. 40075; BPS Bioscience) in the presence of 10 μM of Ultrapure ATP (cat. No. V9102; Promega; part V915A) with and without the test compound in a buffer containing 50 mM HEPES pH 7.5, 10 mM MgCl2, 1 mM EDTA, 0.01% Brij-35 and 2 mM DTT. Separate reactions were performed with the MEK1 substrate and ATP as a blank control. ARAF kinase reactions were rigorously the same with the exception that kinase concentration was raised to 3.75 nM (cat. No. 1768-0000-1; Reaction Biology).
(§3) For compound treatment, 5 μL/well of test substance solution are placed in a 384-well proxyplate (Perkin Elmer) and mixed with 2× concentrated kinase reactions. The dilution series is selected so that nine concentrations cover a range from 100 nM to 0.01 nM. […] The final concentration of DMSO in the assay is set at 0.05%.
(§4) BRAF and CRAF kinase reactions were carried out for a total of 2 hours at 30° C. and then stopped by 1/2 dilution in ADP-Glo Reagent (cat. No. V9102; Promega; part V912C). Reactions were then incubated for 1 h at room temperature before addition of one volume of Kinase Detection Reagent (cat. No. V9102; Promega; part V917A). Plates were then equilibrated at room temperature for 30 minutes before detection of luminescence on a Synergy Neo2 plate reader (Biotek). The effect of each compound dilution on BRAF and CRAF kinase activity was expressed as % inhibition and calculated as follows. First, the internal 100% inhibition control (average of luminescence in kinase reactions comprising kinase dead MEK1 substrate alone) was subtracted from each data point. The average of DMSO (vehicle) controls (set as 0% inhibition) was established and used to calculate % inhibition:
(§5) IC50 values were obtained by plotting the kinase inhibition values and fitting the dose-activity curves using a log(agonist) versus response—variable slope (four parameters) function using either GraphPadPrism (V7.0) or Dotmatics Screening Ultra platform. Standards included in the ARAF kinase assay were Belvarafenib (MedChem Express cat. No. HY-109080; CAS No. 1446113-23-0), LXH254 (MedChem Express cat. No. HY-112089; CAS No. 1800398-38-2) and BGB283 (cat. No. HY-18957; CAS No. 1446090-79-4).

[2] = molecular target: T2, BRAF (Homo sapiens, UniProt P15056); assay: BRAF kinase activity assay (ADP-Glo); format: biochemical; conditions: Table 3; 10 μM ATP, kinase-dead MEK1 substrate
T2 construct: GST; purchased Millipore Sigma B4062-10UG
Description: as §1, §2, §3, §4, §5

[3] = test system: pERK, HCT116 cells; assay: Phospho-ERK inhibition, AlphaLISA p-ERK 1/2, HCT-116; format: cell-based, human; conditions: Table 3; for IC50: HCT116 cells (KRAS G13D), 1 h treatment; for HCT116 pERK (Ymin %): lowest % inhibition value of the pERK IC50 curve, above −20% = no paradoxical induction
Description: All cancer cell lines (A375, A101D, A2058, RKO, HT29 SK-MEL 30, IPC298, HepG2, HCT-116, Lovo, SW620, SW480, NCI-H358, NCI-H2122, Calu-6, NCIH2087, NCIH1755, NCIH1666 and Mewo) were obtained from ATCC and cultured in RPM1-1640 medium (Gibco) supplemented with 5% heat inactivated fetal bovine serum (FBS, Wisent) at 37° C. under 5% CO2. Cells were maintained in T175 flasks (Greiner). They were passaged by removing the culture medium, washing once in 10 mL of room temperature Phosphate Buffered Saline (PBS; Wisent) and incubating at 37° C. with 2 mL of 0.05% Trypsin (Thermo-Fisher). Trypsin was then inactivated by adding complete growth medium and the cells were then replated in a T175 culture dish at the appropriate dilution. All cell lines were routinely tested for mycoplasma contamination. Tissue type and mutational status of each cell line can be found in Table B.
(c) Measurement of Phospho-ERK Inhibition in Cultivated Human Cancer Cell Lines by the AlphaLISA® SureFire® Ultra™ p-ERK 1/2 (Thr2O2/Tyr204)
AlphaLISA® SureFire® Ultra™ p-ERK 1/2 (Thr202/Tyr204) analysis was conducted on cells plated in 100 μL of complete RPMI-1640 growth medium in 96-well flat-bottomed transparent dishes (Costar) at a density indicated in Table C. Cells were maintained overnight at 37° C. under 5% CO2 before treatment with compounds' dilution series for one hour. The cell density in cells/cm^2 corresponds to cell number divided by the area of one well of a 96-well plate (0.143 cm^2).
In a dilution series 100 μL/well of test substance dilution prepared in complete RPMI-1640 growth media was added to the cells. The dilution series is selected so that ten concentrations cover a range from 10 μM to 0.33 nM. If necessary, the initial concentration of 10 μM is increased to 100 μM or lowered to 1 μM (as in the case of A375 and H1666 cells, which are generally more sensitive to the compounds) and further dilution is carried out accordingly. The final concentration of DMSO in the assay is set at 0.5%.
After treatment, media was removed, and cells were lysed in 50 μL of 1× AlphaScreen Ultra Lysis Buffer (Perkin Elmer). The AlphaLISA® SureFire® Ultra™ p-ERK 1/2 (Thr202/Tyr204) (PerkinElmer) reactions were performed with 5 μL of cell lysate according to the manufacturer's specifications in 384-well proxyplates (Perkin Elmer) followed by overnight incubation of the reactions at room temperature in a humidified chamber. After completion of the reactions, the signals were recorded on an EnVision plate reader (Perkin Elmer) using built in AlphaLISA® settings.
The effect of each compound dilution on the pERK signal was expressed in % inhibition and calculated as follows. An internal 100% inhibition control (1 μM trametinib, cat. No. HY-10999; MedChem Express; CAS No. 871700-17-3) was included in each plate and used as a measure of pERK background. First, the value obtained for trametinib was subtracted from each data point. The average of DMSO (vehicle) controls (set as 0% inhibition) was established and used to calculate % inhibition:
The ability of each compound to inhibit pERK signal was expressed as an IC50 value obtained by plotting the inhibition values for each data point of a dilution series and fitting the obtained curves using a log(agonist) versus response—variable slope (four parameters) function using GraphPadPrism (V7.0) or Dotmatics Screening Ultra platform.
When present, paradoxical pERK induction is inferred from the negative % inhibition values observed in the pERK IC50 curves of a compound.

T2 sequence (P15056 whole entry): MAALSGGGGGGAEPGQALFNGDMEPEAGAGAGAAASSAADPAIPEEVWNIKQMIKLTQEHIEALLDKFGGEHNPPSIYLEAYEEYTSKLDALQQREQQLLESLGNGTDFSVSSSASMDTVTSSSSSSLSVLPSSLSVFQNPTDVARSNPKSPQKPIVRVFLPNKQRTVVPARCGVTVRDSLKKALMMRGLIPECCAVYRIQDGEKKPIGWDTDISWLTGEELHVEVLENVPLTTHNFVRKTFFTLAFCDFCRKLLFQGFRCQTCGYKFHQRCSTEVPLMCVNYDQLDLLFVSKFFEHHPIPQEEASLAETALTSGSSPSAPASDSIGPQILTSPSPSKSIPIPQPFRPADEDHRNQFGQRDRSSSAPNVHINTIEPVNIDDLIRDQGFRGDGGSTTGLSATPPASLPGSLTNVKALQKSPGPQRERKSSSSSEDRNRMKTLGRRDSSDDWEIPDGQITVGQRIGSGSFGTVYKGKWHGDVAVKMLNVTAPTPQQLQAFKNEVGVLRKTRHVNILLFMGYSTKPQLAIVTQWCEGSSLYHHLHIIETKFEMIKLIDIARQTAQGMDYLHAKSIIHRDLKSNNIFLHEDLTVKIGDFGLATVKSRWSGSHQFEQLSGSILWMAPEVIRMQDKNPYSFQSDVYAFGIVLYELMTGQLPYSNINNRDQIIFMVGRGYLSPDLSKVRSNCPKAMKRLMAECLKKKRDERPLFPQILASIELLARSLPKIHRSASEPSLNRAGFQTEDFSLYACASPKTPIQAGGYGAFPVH
T1 sequence (P04049 whole entry Y340E/Y341E, form open, the tested form may be a part): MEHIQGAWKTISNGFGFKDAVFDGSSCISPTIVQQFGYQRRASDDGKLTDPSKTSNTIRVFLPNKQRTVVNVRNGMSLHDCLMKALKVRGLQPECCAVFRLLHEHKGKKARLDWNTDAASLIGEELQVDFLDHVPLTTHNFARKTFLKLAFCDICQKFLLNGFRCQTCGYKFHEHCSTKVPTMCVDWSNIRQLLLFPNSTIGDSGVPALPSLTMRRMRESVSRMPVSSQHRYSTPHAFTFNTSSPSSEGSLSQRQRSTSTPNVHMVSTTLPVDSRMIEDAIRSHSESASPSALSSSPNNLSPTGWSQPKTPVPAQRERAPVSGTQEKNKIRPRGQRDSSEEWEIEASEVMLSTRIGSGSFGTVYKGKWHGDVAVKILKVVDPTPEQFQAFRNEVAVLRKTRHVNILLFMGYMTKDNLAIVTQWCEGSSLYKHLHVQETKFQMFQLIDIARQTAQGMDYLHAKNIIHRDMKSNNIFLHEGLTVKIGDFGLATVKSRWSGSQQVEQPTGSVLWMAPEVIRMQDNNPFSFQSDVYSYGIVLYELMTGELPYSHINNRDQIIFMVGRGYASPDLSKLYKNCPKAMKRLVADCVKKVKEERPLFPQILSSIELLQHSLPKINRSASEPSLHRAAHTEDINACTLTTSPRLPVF

Compound	IC50 [1]	IC50 [2]	IC50 [3]	IC50 ([3]; Homo sapiens, HCT-116)	HCT116 pERK (Ymin %) [3]
COc1nccc2c1ncn2-c1nc2c(Nc3c(F)ccc(NS(=O)(=O)c4cccc(Cl)c4Cl)c3F)ncnc2s1 [Example 105]	< 10 nM	1 to 10 nM	< 500 nM		4%
O=S(=O)(Nc1ccc(F)c(Nc2ncnc3sc(-n4cc(S(=O)(=O)N5CC(C(F)F)C5)c5ccccc54)nc23)c1F)c1cccc(Cl)c1Cl [Example 76]	10 to 50 nM	> 10 nM	1000 to 10000 nM		−10%
O=C(c1cn(-c2nc3c(Nc4c(F)ccc(NS(=O)(=O)c5cccc(Cl)c5Cl)c4F)ncnc3s2)c2ccccc12)N1C2CCC1COC2 [Example 51]	< 10 nM	< 1 nM	< 500 nM		−1%
COc1ccc(S(=O)(=O)Nc2ccc(F)c(Nc3ncnc4sc(-n5cnc6ccccc65)nc34)c2F)c(C)c1Cl [Example 14]	10 to 50 nM	1 to 10 nM	1000 to 10000 nM		−14%
Cc1c(F)cccc1S(=O)(=O)Nc1ccc(F)c(Nc2ncnc3sc(-n4nc(C(=O)N(C)CCc5ccccn5)c5ccccc54)nc23)c1F [Example 25]	> 50 nM	> 10 nM	1000 to 10000 nM		2%
O=S(=O)(Nc1ccc(F)c(Nc2ncnc3sc(-n4cnc5c(N6C7CCC6CC(O)C7)cccc54)nc23)c1F)c1cccc(Cl)c1Cl (stereo not drawn) [Example 129]	> 50 nM	1 to 10 nM	< 500 nM		0%
CC(C)C(=O)c1cn(-c2nc3c(Nc4c(F)ccc(NS(=O)(=O)c5cccc(Cl)c5Cl)c4F)ncnc3s2)c2ccccc12 [Example 92]	> 50 nM	> 10 nM		1000 to 10000 nM	
O=S(=O)(CC1CCOCC1)c1cn(-c2nc3c(Nc4c(F)ccc(NS(=O)(=O)c5cccc(Cl)c5Cl)c4F)ncnc3s2)c2ccccc12 [Example 65]	10 to 50 nM	1 to 10 nM	500 to 1000 nM		−3%
O=C(c1cn(-c2nc3c(Nc4c(F)ccc(NS(=O)(=O)c5cccc(Cl)c5Cl)c4F)ncnc3s2)c2ccccc12)N1CC2(CCOCC2)C1 [Example 58]	< 10 nM	1 to 10 nM	< 500 nM		−12%

Continued, in another order:

IC50 [1]	IC50 [2]	IC50 [3]	IC50 ([3]; Homo sapiens, HCT-116)	Compound	HCT116 pERK (Ymin %) [3]
10 to 50 nM	> 10 nM	< 500 nM		O=C(c1cn(-c2nc3c(Nc4c(F)ccc(NS(=O)(=O)c5cccc(Cl)c5Cl)c4F)ncnc3s2)c2ccccc12)N1CCC(O)(C(F)(F)F)CC1 [Example 97]	−10%
< 10 nM	< 1 nM	< 500 nM		CN(C)CCN(C)S(=O)(=O)c1cn(-c2nc3c(Nc4c(F)ccc(NS(=O)(=O)c5cccc(Cl)c5Cl)c4F)ncnc3s2)c2ccccc12 [Example 41]	0%
10 to 50 nM	1 to 10 nM	< 500 nM		O=S(=O)(Nc1ccc(F)c(Nc2ncnc3sc(-n4cnc5c(N6CCC[C@@H](O)C6)cccc54)nc23)c1F)c1cccc(Cl)c1Cl [Example 148]	−2%
< 10 nM	1 to 10 nM		< 500 nM	COc1cccc2c1ncn2-c1nc2c(Nc3c(F)ccc(NS(=O)(=O)c4cccc(Cl)c4Cl)c3F)ncnc2s1 [Example 99]	
< 10 nM	1 to 10 nM	500 to 1000 nM		Cc1cn(-c2nc3c(Nc4c(F)ccc(NS(=O)(=O)c5cccc(Cl)c5Cl)c4F)ncnc3s2)cn1 [Example 125]	2%
< 10 nM	< 1 nM	< 500 nM		O=S(=O)(Nc1ccc(F)c(Nc2ncnc3sc(-n4cnc5c(CCO)cccc54)nc23)c1F)c1cccc(Cl)c1Cl [Example 126]	−9%
< 10 nM	< 1 nM	< 500 nM		CN1CC2CCC(C1)N2C(=O)c1cn(-c2nc3c(Nc4c(F)ccc(NS(=O)(=O)c5cccc(Cl)c5Cl)c4F)ncnc3s2)c2ccccc12 [Example 56]	0%
< 10 nM	1 to 10 nM		500 to 1000 nM	CS(=O)(=O)c1cn(-c2nc3c(Nc4c(F)ccc(NS(=O)(=O)c5cccc(Cl)c5Cl)c4F)ncnc3s2)c2ccccc12 [Example 72]	
10 to 50 nM	1 to 10 nM	< 500 nM		Cc1cc2ncn(-c3nc4c(Nc5c(F)ccc(NS(=O)(=O)c6cccc(Cl)c6Cl)c5F)ncnc4s3)c2cc1C [Example 20]	−12%
< 10 nM	1 to 10 nM	1000 to 10000 nM		O=S(=O)(Nc1ccc(F)c(Nc2ncnc3sc(-n4cc(S(=O)(=O)N5CC(CO)C5)c5ccccc54)nc23)c1F)c1cccc(Cl)c1Cl [Example 74]	−9%
> 50 nM	1 to 10 nM	< 500 nM		COC1(C)CCN(c2cccc3c2ncn3-c2nc3c(Nc4c(F)ccc(NS(=O)(=O)c5cccc(Cl)c5Cl)c4F)ncnc3s2)CC1 [Example 135]	−5%
< 10 nM	< 1 nM	< 500 nM		CN(CCc1ccccn1)C(=O)c1cn(-c2nc3c(Nc4c(F)ccc(NS(=O)(=O)c5cccc(Cl)c5Cl)c4F)ncnc3s2)c2ccccc12 [Example 50]	1%

From patent US20260137697A1, “THIAZOLO[5,4-D]PYRIMIDINE COMPOUNDS, COMPOSITIONS COMPRISING THEM AND USES THEREOF” (University de Montreal, priority 2022, published 2026)
